Here are results for 31 molecules from patent publication US5716950A, “Diazacycloalkanealkylsulfonamide derivatives” (Nippon Shoji Kabushiki Kaisha, priority 1994, dated 1998).

Data set [1] concerns passive cutaneous anaphylaxis (PCA). The experiment in a line: Activity of suppressing passive cutaneous anaphylaxis (PCA). To be noted: Rattus norvegicus, po, 1 h, 10 mg/kg-po, 1 hour before antigen challenge; read-out: % suppression of rat PCA. Type of data set: in vivo, Male Wistar rats. Here is the method:
Test compounds were examined on their antiallergic activities. […] After 48 hours, 1.0 ml of 0.5 % Evans Blue saline solution containing DNP.BSA (1 mg in protein) was injected through the tail vein to induce allergic reaction. After 30 minutes, the rats were sacrificed by bleeding and the skin of back where dye was leaked out was flayed and put it into 20 ml test tube with ground stopper. Thereto was added 1.0 ml of 1N KOH aqueous solution and then it was allowed to stand at 37° C. in incubator overnight for lysing. To this solution was added 8.3 ml of a mixture of acetone and 0.6N phosphoric acid (13:5) and the mixture was mixed well and then was filtered to remove the insoluble materials.
The test compounds were administered orally 1 hour before the antigen challenge. Suppression rate was expressed by percentage to the value in control where 0.5% aqueous methylcellulose solution was orally administered.

Data set [2] concerns extracted ileum (histamine contraction). The data set can be described thus: Antihistaminic activity: suppression of histamine-induced contraction of extracted ileum. Details: species or system Female Hartley guinea pig. To be noted: histamine 3×10^-7 M; guinea pig ileum; 50% suppression of contraction; read-out: anti-His in extracted ileum EC50. Here is the method: Female Hartley guinea pig (weighing 500 to 650 g) were sacrificed and the ileum (length of about 10 to 25 cm) was extracted from the ileocecum to prepare a specimen (length of 3 cm). […] After allowing to stand for 60 minutes to make the specimen stable, a histamine (3×10^-7 M) was applied to the specimen at single application. Contraction of the specimen was determined and recorded using isotonic transducer. After repeating application of a histamine to make the contraction constant, a diluted solution of the test compound was applied. Three minutes after the application, a histamine was then added and an activity of suppressing contraction was examined.

In another data set the test system is male ICR mice. The data set can be described thus: Toxicity Test (mouse acute toxicity, minimum lethal dose). It is filed as in vivo. To be noted: po, observed for 24 hours, head prints (10 mg/kg-po). The source says:
The test compounds were orally administered to male ICR mice (weighing to 30 g) after fasting overnight. […] The results were expressed by minimum lethal dose. Toxicity of any compounds of the present invention were weaker than that of ketotifen which was a reference compound.

Each structure is given as a SMILES string.

For `NS(=O)(=O)CCCCCCN1CCN(C(c2ccccc2)c2ccc(Cl)cc2)CC1` (stereo not drawn) [Example 3], the inhibition in vivo at 10 mg/kg in data set [1] was 95.2%. In data set [2], the EC50 came out at 760 nM. In addition, in the data set on male ICR mice, the “mouse acute toxicity (lethal dose)” value is greater than 500 mg/kg.

As for `NS(=O)(=O)CCCCCCCCN1CCN(C(c2ccccc2)c2ccc(Cl)cc2)CC1` (stereo not drawn) [Example 4], in data set [1], the inhibition in vivo at 10 mg/kg was determined as 89%. Moreover, the EC50 in data set [2] is 650 nM. Also, in the data set with male ICR mice, the “mouse acute toxicity (lethal dose)” value is reported as greater than 500 mg/kg.

For the molecule `NS(=O)(=O)CCCCCCCCN1CCN(C(c2ccc(F)cc2)c2ccccn2)CC1` (stereo not drawn) [Example 13], the inhibition in vivo at 10 mg/kg in data set [1] was determined as 73.8%. Moreover, the EC50 in data set [2] came to 320 nM. Besides, the “mouse acute toxicity (lethal dose)” value with male ICR mice is greater than 500 mg/kg.

For `CNS(=O)(=O)CCCCCCN1CCN(C(c2ccccc2)c2ccc(Cl)cc2)CC1` (stereo not drawn) [Example 21], the inhibition in vivo at 10 mg/kg in data set [1] worked out at 89.7%. In addition, the EC50 in data set [2] was found to be 510 nM. Further, the “mouse acute toxicity (lethal dose)” value with male ICR mice is given as greater than 500 mg/kg.

For `CNS(=O)(=O)CCCCCCN1CCN(C(c2ccc(F)cc2)c2ccccn2)CC1` (stereo not drawn) [Example 26], the inhibition in vivo at 10 mg/kg in data set [1] was determined as 71%. Moreover, the concentration for a half-maximal effect (EC50) in data set [2] turned out to be 300 nM. Also, the “mouse acute toxicity (lethal dose)” value with male ICR mice is greater than 500 mg/kg.

For `CCNS(=O)(=O)CCCCCCN1CCN(C(c2ccccc2)c2ccc(Cl)cc2)CC1` (stereo not drawn) [Example 29], the inhibition in vivo at 10 mg/kg in data set [1] is 95.7%. The half-maximal effective concentration (EC50) in data set [2] is 750 nM. Besides, in the data set with male ICR mice, the “mouse acute toxicity (lethal dose)” value is listed as greater than 500 mg/kg.

On to `CCNS(=O)(=O)CCCCCN1CCN(C(c2ccc(F)cc2)c2ccccn2)CC1` (stereo not drawn) [Example 31], for which the inhibition in vivo at 10 mg/kg in data set [1] was found to be 87.2%. In addition, the EC50 in data set [2] was found to be 770 nM. In addition, in the data set on male ICR mice, the “mouse acute toxicity (lethal dose)” value is greater than 500 mg/kg.

Consider `CCNS(=O)(=O)CCCCCCN1CCN(C(c2ccc(F)cc2)c2ccccn2)CC1` (stereo not drawn) [Example 32], for which, in data set [1], the inhibition in vivo at 10 mg/kg was 86.8%. Moreover, the EC50 in data set [2] was determined as 840 nM. Moreover, the “mouse acute toxicity (lethal dose)” value in the data set with male ICR mice was greater than 500 mg/kg.

For `CCCNS(=O)(=O)CCCCCCN1CCN(C(c2ccc(F)cc2)c2ccccn2)CC1` (stereo not drawn) [Example 39], the inhibition in vivo at 10 mg/kg in data set [1] was determined as 83.8%. In addition, the EC50 in data set [2] was found to be 810 nM. Also, the “mouse acute toxicity (lethal dose)” value in the data set on male ICR mice is greater than 500 mg/kg.

`CCCNS(=O)(=O)CCCCCCCCCCN1CCN(C(c2ccc(F)cc2)c2ccccn2)CC1` (stereo not drawn) [Example 42]: the inhibition in vivo at 10 mg/kg in data set [1] is 80.2%. The EC50 in data set [2] was 330 nM. Besides, the “mouse acute toxicity (lethal dose)” value with male ICR mice was greater than 500 mg/kg.

Take `CC(C)NS(=O)(=O)CCCCCCN1CCN(C(c2ccccc2)c2ccc(Cl)cc2)CC1` (stereo not drawn) [Example 43]: the inhibition in vivo at 10 mg/kg in data set [1] was found to be 86.5%. Besides, the EC50 in data set [2] came to 690 nM. The “mouse acute toxicity (lethal dose)” value in the data set with male ICR mice is given as greater than 500 mg/kg.

Consider `CC(C)NS(=O)(=O)CCCCCN1CCN(C(c2ccc(F)cc2)c2ccccn2)CC1` (stereo not drawn) [Example 45], for which, in data set [1], the inhibition in vivo at 10 mg/kg amounted to 84%. Besides, the EC50 in data set [2] turned out to be 740 nM. Further, the “mouse acute toxicity (lethal dose)” value with male ICR mice is reported as greater than 500 mg/kg.

As for `CC(C)NS(=O)(=O)CCCCCCCCN1CCN(C(c2ccc(F)cc2)c2ccccn2)CC1` (stereo not drawn) [Example 48], in data set [1], the inhibition in vivo at 10 mg/kg worked out at 83.8%. Besides, the EC50 in data set [2] was 350 nM. Moreover, in the data set on male ICR mice, the “mouse acute toxicity (lethal dose)” value is recorded as greater than 500 mg/kg.

For the molecule `O=S(=O)(CCCCCCN1CCN(C(c2ccccc2)c2ccc(Cl)cc2)CC1)NC1CCCC1` (stereo not drawn) [Example 59], in data set [1], the inhibition in vivo at 10 mg/kg was determined as 96.4%. Besides, the EC50 in data set [2] turned out to be 2900 nM. Moreover, in the data set on male ICR mice, the “mouse acute toxicity (lethal dose)” value is on record as greater than 500 mg/kg.

As to `CN(C)S(=O)(=O)CCCCCCN1CCN(C(c2ccccc2)c2ccc(Cl)cc2)CC1` (stereo not drawn) [Example 64], in data set [1], the inhibition in vivo at 10 mg/kg came out at 72.5%. Moreover, the EC50 in data set [2] stood at 360 nM. The “mouse acute toxicity (lethal dose)” value in the data set with male ICR mice was greater than 500 mg/kg.

On to `CN(C)S(=O)(=O)CCCCCCN1CCN(C(c2ccc(F)cc2)c2ccc(F)cc2)CC1` [Example 65], for which the inhibition in vivo at 10 mg/kg in data set [1] was found to be 74.7%. In data set [2], the EC50 came out at 430 nM. Further, the “mouse acute toxicity (lethal dose)” value in the data set on male ICR mice is reported as greater than 500 mg/kg.

`CN(C)S(=O)(=O)CCCCCCN1CCN(C(c2ccncc2)c2ccc(Cl)cc2)CC1` (stereo not drawn) [Example 66]: the inhibition in vivo at 10 mg/kg in data set [1] turned out to be 82.8%. Also, in data set [2], the EC50 worked out at 420 nM. Further, the “mouse acute toxicity (lethal dose)” value in the data set with male ICR mice is listed as greater than 500 mg/kg.

On to `CN(C)S(=O)(=O)CCCCCCN1CCN(C(c2ccccc2)c2ccccn2)CC1` (stereo not drawn) [Example 67], for which the inhibition in vivo at 10 mg/kg in data set [1] worked out at 84.1%. Moreover, the EC50 in data set [2] is 420 nM. Moreover, the “mouse acute toxicity (lethal dose)” value in the data set on male ICR mice was greater than 500 mg/kg.

In the case of `CN(C)S(=O)(=O)CCCCCCCCN1CCN(C(c2ccccc2)c2ccccc2F)CC1` (stereo not drawn) [Example 69], the inhibition in vivo at 10 mg/kg in data set [1] was found to be 88.3%. The concentration for a half-maximal effect (EC50) in data set [2] came to 150 nM. Further, in the data set with male ICR mice, the “mouse acute toxicity (lethal dose)” value is on record as greater than 500 mg/kg.

Take `COc1cc(NS(=O)(=O)CCCCCCN2CCN(C(c3ccccc3)c3ccccc3)CC2)cc(OC)c1OC` [Example 99]: the inhibition in vivo at 10 mg/kg in data set [1] is 72.1%. The EC50 in data set [2] was 1300 nM. Moreover, the “mouse acute toxicity (lethal dose)” value in the data set with male ICR mice is recorded as greater than 500 mg/kg.

As to `O=S(=O)(CCCCCCN1CCN(C(c2ccccc2)c2ccc(Cl)cc2)CC1)NCCO` (stereo not drawn) [Example 101], in data set [1], the inhibition in vivo at 10 mg/kg was 88%. In addition, in data set [2], the EC50 was determined as 810 nM. In the data set on male ICR mice, the “mouse acute toxicity (lethal dose)” value is greater than 500 mg/kg.

As to `NS(=O)(=O)CCCCCCCCCCN1CCN(C(c2ccccc2)c2ccc(Cl)cc2)CC1` (stereo not drawn) [Example 104], the inhibition in vivo at 10 mg/kg in data set [1] turned out to be 86.7%. The EC50 in data set [2] worked out at 6800 nM. In addition, the “mouse acute toxicity (lethal dose)” value in the data set with male ICR mice is given as greater than 500 mg/kg.

`CCNS(=O)(=O)CCCCCCCCN1CCN(C(c2ccccc2)c2ccc(Cl)cc2)CC1` (stereo not drawn) [Example 108]: the inhibition in vivo at 10 mg/kg in data set [1] was found to be 82.2%. Besides, in data set [2], the EC50 was 680 nM. For the same molecule, in the data set with male ICR mice, the “mouse acute toxicity (lethal dose)” value is greater than 500 mg/kg.

Take `O=S(=O)(CCCCCCCN1CCN(C(c2ccccc2)c2ccc(Cl)cc2)CC1)NC1CC1` (stereo not drawn) [Example 115]: the inhibition in vivo at 10 mg/kg in data set [1] was found to be 73.2%. Moreover, the EC50 in data set [2] came to 790 nM. Moreover, the “mouse acute toxicity (lethal dose)” value in the data set with male ICR mice is greater than 500 mg/kg.

For `O=S(=O)(CCCCCCCCN1CCN(C(c2ccccc2)c2ccc(Cl)cc2)CC1)NC1CC1` (stereo not drawn) [Example 116], the inhibition in vivo at 10 mg/kg in data set [1] was determined as 70.2%. For the same molecule, the EC50 in data set [2] is 120 nM. The “mouse acute toxicity (lethal dose)” value in the data set on male ICR mice is greater than 500 mg/kg.

For the molecule `O=S(=O)(CCCCCCN1CCN(C(c2ccccc2)c2ccc(F)cc2)CC1)NC1CC1` (stereo not drawn) [Example 124], the inhibition in vivo at 10 mg/kg in data set [1] is 88.4%. In data set [2], the concentration giving a half-maximal response (EC50) is 200 nM. Besides, in the data set with male ICR mice, the “mouse acute toxicity (lethal dose)” value was greater than 500 mg/kg.

As to `O=S(=O)(CCCCCCCN1CCN(C(c2ccccc2)c2ccc(Cl)cc2)CC1)NC1CCC1` (stereo not drawn) [Example 129], in data set [1], the inhibition in vivo at 10 mg/kg was 92.2%. In addition, the EC50 in data set [2] came out at 1800 nM. The “mouse acute toxicity (lethal dose)” value in the data set with male ICR mice was greater than 500 mg/kg.

On to `O=S(=O)(CCCCN1CCN(C(c2ccccc2)c2ccc(Cl)cc2)CC1)NC1CCCC1` (stereo not drawn) [Example 135], for which the inhibition in vivo at 10 mg/kg in data set [1] was determined as 74.4%. For the same molecule, the concentration for a half-maximal effect (EC50) in data set [2] stood at 1100 nM. Moreover, the “mouse acute toxicity (lethal dose)” value in the data set with male ICR mice was greater than 500 mg/kg.

For `O=S(=O)(CCCCCN1CCN(C(c2ccccc2)c2ccc(Cl)cc2)CC1)NC1CCCC1` (stereo not drawn) [Example 136], in data set [1], the inhibition in vivo at 10 mg/kg is 80.2%. Moreover, in data set [2], the EC50 worked out at 540 nM. The “mouse acute toxicity (lethal dose)” value with male ICR mice is recorded as greater than 500 mg/kg.

`O=S(=O)(CCCCCCCN1CCN(C(c2ccccc2)c2ccc(Cl)cc2)CC1)NC1CCCC1` (stereo not drawn) [Example 137]: in data set [1], the inhibition in vivo at 10 mg/kg came to 75.8%. In addition, the EC50 in data set [2] was 2200 nM. In the data set with male ICR mice, the “mouse acute toxicity (lethal dose)” value is listed as greater than 500 mg/kg.

With `CN(C)S(=O)(=O)CCCCCCCN1CCN(C(c2ccccc2)c2ccc(Cl)cc2)CC1` (stereo not drawn) [Example 150], in data set [1], the inhibition in vivo at 10 mg/kg is 89.1%. Besides, in data set [2], the EC50 turned out to be 350 nM. Moreover, in the data set with male ICR mice, the “mouse acute toxicity (lethal dose)” value is greater than 500 mg/kg.
